Like-named read-outs stand apart in the source and are kept apart here.
What was measured:
[1] = tested on: mouse NSC neurosphere cultures; experiment: Dose-response curves and EC50, neurosphere MTT proliferation, 7 days; assay type: cell-based
[2] = tested on: murine neural precursor cells (neurosphere cultures); experiment: HTS of LOPAC library against secondary neurosphere cultures, MTT proliferation assay at 3 μM, day 7 (z score, P value); assay type: cell-based, mouse
[3] = tested on: Ptch1+/− Trp53−/− medulloblastoma neurosphere cultures; experiment: Tumor sphere MTT proliferation EC50; assay type: cell-based, mouse; settings: read-out: Ptch1+/− Trp53−/− neurosphere EC50
Description: (§1) Astrocyte Screen and Neurosphere Selectivity Assessment. […] Murine Medulloblastoma Generation and Culture. […] Flow Cytometry. […] Results

[4] = tested on: ptc1+/− medulloblastoma precursor cells (neurosphere cultures); experiment: Medulloblastoma tumor sphere MTT proliferation EC50; assay type: cell-based, mouse
Description: as §1

[5] = tested on: NPC colony formation; experiment: Inhibition of colony formation by bromocriptine with and without (±)-sulpiride; assay type: cell-based, mouse
[6] = cited from earlier work
[7] = tested on: hGBM1 precursors (WHO grade IV GBM); experiment: Human glioblastoma precursor EC50 (hGBM1); assay type: cell-based
[8] = tested on: hGBM2 precursors (WHO grade IV GBM, giant cell variant); experiment: Human glioblastoma precursor EC50 (hGBM2); assay type: cell-based
[9] = tested on: neural precursors derived from human fetal CNS tissue (hFetal); experiment: Human fetal neural precursor EC50; assay type: cell-based
[10] = tested on: ptc1+/− tumor cell growth; settings: cited from earlier work
[11] = tested on: nestin expression in NPCs; experiment: Flow cytometric analysis of nestin in NPCs; assay type: cell-based, mouse
[12] = tested on: NSC fraction of neurosphere cultures; settings: 7 day pretreatment at estimated EC75 (apomorphine EC50); 2,000 or 1,000 cells
[13] = tested on: medulloblastoma formation; settings: mice; cited from earlier work
[14] = 168 h, normal mouse neurosphere cultures, MTT, 7 days, read-out: Neurosphere EC50
[15] = Mus musculus, read-out: EC 50% Neurosphere, Table 5
[16] = Mus musculus, Table 8, read-out: Neurosphere EC50
[17] = cultures derived from mouse cerebellar tumor samples
[18] = Mus musculus, ptc1+/− medulloblastoma derived neurospheres, read-out: Medulloblastoma Neurosphere EC50
[19] = cultures derived from mouse cerebellar tumor samples, read-out: Ptch1+/− neurosphere EC50
[20] = LOPAC primary screen, neurosphere MTT proliferation, 3 μM, day 7
[21] = yes/no: significantly inhibited neurosphere proliferation (P<0.01) in the primary screen
[22] = Table 8, read-out: Neurosphere EC50
[23] = LOPAC library screen, 3 μM, MTT, secondary neurosphere cultures, day 7
[24] = normal mouse neurosphere cultures, MTT, 7 days, read-out: Neurosphere EC50
[25] = read-out: EC 50% Neurosphere, Table 5
[26] = ptc1+/− medulloblastoma derived neurospheres, read-out: Medulloblastoma Neurosphere EC50
[27] = Mus musculus, read-out: Ptch1+/− neurosphere EC50

EC50 ([7]; Homo sapiens) | EC50 ([8]; Homo sapiens) | Structure (SMILES) | EC50 [1, 14] | EC50 [1, 15] | EC50 [1, 16] | EC50 [4, 18] | EC50 [4, 19] | Z score [2, 20] | Activity [2, 21] | Z Score [2, 23] | EC50 [9] | further results
 |  | CC(C)(C)[C@]1(O)CCN2C[C@H]3c4ccccc4CCc4cccc(c43)[C@@H]2C1 (racemic) [(±) Butaclamol (4), (±)-Butaclamol] | 785 nM | 785 nM | 785 nM | 751 nM | 751 nM |  |  |  |  | Activity [2]: yes; Z score ([2]; 168 h, 3 µM): −5.934; EC50 [3, 17]: 2530 nM
 |  | CCN1CCCC1CNC(=O)c1cc(S(N)(=O)=O)ccc1OC (racemic) [(±)-sulpride, reference compound] |  |  |  |  |  | −0.284 | no |  |  | rescue of the inhibitory effects of bromocriptine ([5]; colony formation and MTT values): able to competitively rescue the inhibitory effects
 |  | CC(C)C[C@H]1C(=O)N2CCC[C@H]2[C@]2(O)O[C@](NC(=O)[C@@H]3C=C4c5cccc6[nH]c(Br)c(c56)C[C@H]4N(C)C3)(C(C)C)C(=O)N12 [(+)-Bromocripline (18), (+)-Bromocripline] |  |  |  |  |  |  |  |  |  | EC50 [1, 22]: 1190 nM; EC50 ([5]; with (±)-sulpiride supplementation, read-out: EC50 of inhibition of colony formation, with sulpiride): 2500 nM; EC50 ([5]; without sulpiride, read-out: EC50 of inhibition of colony formation, without sulpiride): 1200 nM
14600 nM | 310 nM | CN1CCc2cccc3c2[C@H]1Cc1ccc(O)c(O)c1-3 [(R)-(−)-Apomorphine (6), (R)-(−)-Apomorphine] | 350 nM | 350 nM | 350 nM | 168 nM | 168 nM | −11.274 |  | −11.27 |  | Effective in vivo concentrations [6]: 6 to 7 µM; Activity [2]: yes
5440 nM | 1730 nM | CCN(CC)CCOCCOC(=O)C1(c2ccccc2)CCCC1 [Carbetapentane (10), Carbetapentane] | 756 nM | 756 nM | 756 nM | 2080 nM | 2080 nM | −8.021 | yes | −8.021 |  | 
 |  | N.N.O=C([O-])C1(C(=O)[O-])CCC1.[Pt+2] [Carboplatin (3), Carboplatin] |  |  |  |  | 196 nM | −6.204 |  | −6.204 | 430 nM | EC50 [7]: 2040 nM; EC50 [8]: 3300 nM; EC50 [1, 22]: 489 nM; EC50 [1, 24]: 489 nM; EC50 [1, 25]: 489 nM; Activity ([2]; yes = significantly inhibited neurosphere proliferation (P<0.01) in the primary screen): yes; EC50 [4, 26]: 196 nM
 |  | C[C@@H]1C[C@@H]([C@H](O)CC2CC(=O)NC(=O)C2)C(=O)[C@@H](C)C1 [Cycloheximide (1), Cycloheximide] |  |  |  |  |  |  |  |  |  | EC50 ([3]; Mus musculus): 54 nM; EC50 ([4]; Mus musculus, read-out: Medulloblastoma Neurosphere EC50): 42 nM; EC50 [4, 27]: 42 nM
 |  | CC1=C2C[C@H]3[C@@H](CC=C4C[C@@H](O)CC[C@@]43C)[C@@H]2CC[C@]12O[C@@H]1C[C@H](C)CN[C@H]1[C@H]2C [Cyclopamine (16), Cyclopamine] |  |  |  |  |  |  |  |  |  | reported concentration for inhibition of ptc1+/− tumor cell growth in vitro [10]: 5 µM; EC50 [4, 27]: 1000 nM
620 nM | 270 nM | COc1cc([C@@H]2c3cc4c(cc3[C@@H](O[C@@H]3O[C@@H]5CO[C@@H](C)O[C@H]5[C@H](O)[C@H]3O)[C@H]3COC(=O)[C@H]23)OCO4)cc(OC)c1O [Etoposide (2), Etoposide] | 340 nM | 340 nM | 340 nM | 208 nM | 208 nM | −11.102 | yes | −11.1 | 160 nM | 
 |  | Nc1ccc(CCN2CCN(c3cccc(C(F)(F)F)c3)CC2)cc1 [PAPP (14), p-aminophenethyl-m-trifluoromethylphenyl piperazine] |  |  |  |  | 169 nM |  |  |  | 220 nM | secondary neurosphere formation upon re-culture in the absence of drug (replating efficiency) [12]: reduction in replating efficiency; EC50 [7]: 1870 nM; EC50 [8]: 310 nM; EC50 [1, 22]: 31 nM; EC50 [1, 24]: 31 nM; EC50 [1, 25]: 31 nM; Activity [2]: yes; Z Score [2]: −10.73; Z score [2]: −10.728; EC50 [3, 17]: 97 nM; EC50 [4, 26]: 169 nM; expression of the immature NPC marker nestin [11]: substantially decreased
 |  | O=C(Nc1ccccc1)C12CC1/C(=N\O)c1ccccc1O2 (centres unmarked) [PHCCC] |  |  |  |  |  |  |  |  |  | medulloblastoma formation in vivo [13]: attenuate medulloblastoma formation
 |  | O[Si](CCCN1CCCCC1)(c1ccc(F)cc1)C1CCCCC1 (centres unmarked) [p-F-HHSiD (8), p-fluoro-hexahydrosila-difenidol] |  |  |  |  | 1120 nM |  |  |  | 10600 nM | EC50 [7]: 12600 nM; EC50 [8]: 1230 nM; EC50 [1, 22]: 441 nM; EC50 [1, 24]: 441 nM; EC50 [1, 25]: 441 nM; EC50 [3, 17]: 1370 nM; EC50 [4, 26]: 1120 nM

Structure (SMILES) | EC50 ([7]; Homo sapiens) | EC50 ([8]; Homo sapiens) | EC50 [1, 14] | EC50 [1, 15] | EC50 [1, 16] | EC50 [4, 18] | EC50 [4, 19] | Z score [2, 20] | Activity [2, 21] | Z Score [2, 23] | EC50 [9] | further results
COc1cc(CNC(=O)CCCCCCC(C)C)ccc1O [Dihydrocapsaicin (15), Dihydrocapsaicin] | 88600 nM | 21500 nM |  |  |  | 20 nM | 20 nM | −10.003 | yes | −10 |  | 
CC(C(O)c1ccc(O)cc1)N1CCC(Cc2ccccc2)CC1 (centres unmarked) [Ifenprodil (9), Ifenprodil] | 1990 nM | 206 nM | 616 nM | 616 nM | 616 nM | 451 nM | 451 nM | −8.904 | yes | −8.904 | 420 nM | EC50 [3, 17]: 807 nM; nestin negative cells ([11]; 2 d treatment, 5 μM, vehicle 20%): 63%; expression of the immature NPC marker nestin ([11]; treatment for 2 d): substantially decreased

Reference: patent US8058243B2, “Method for treating a brain cancer with ifenprodil” (HSC Research and Development Limited Partnership, priority 2006, dated 2011)
